# How the values were obtained:
# U-251 = assay: Growth inhibition of human U251 cells assessed as cell growth at 10^-5 M incubated for 48 hrs by sulforhodamine B assay relative to control; format: cell-based; parameters: scale not given: the % may be the effect or the level left; settings: u-251, 48 h, 10 µM
# SF-268 = assay: Growth inhibition of human SF268 cells assessed as cell growth at 10^-5 M incubated for 48 hrs by sulforhodamine B assay relative to control; format: cell-based; parameters: scale not given: the % may be the effect or the level left; settings: sf-268, 48 h, 10 µM
# SK-OV-3 = assay: Growth inhibition of human SKOV3 cells assessed as cell growth at 10^-5 M incubated for 48 hrs by sulforhodamine B assay relative to control; format: cell-based; parameters: scale not given: the % may be the effect or the level left; settings: sk-ov-3, 48 h, 10 µM
# OVCAR-5 = assay: Growth inhibition of human OVCAR5 cells assessed as cell growth at 10^-5 M incubated for 48 hrs by sulforhodamine B assay relative to control; format: cell-based; parameters: scale not given: the % may be the effect or the level left; settings: ovcar-5, 48 h, 10 µM
# Staphylococcus aureus = assay: Antibacterial activity against Staphylococcus aureus RCMB 010028 after 24 hrs by serial dilution method; format: functional; settings: RCMB 010028, 24 h
# NCI-H460 = assay: Growth inhibition of human NCI-H460 cells assessed as cell growth at 10^-5 M incubated for 48 hrs by sulforhodamine B assay relative to control; format: cell-based; parameters: scale not given: the % may be the effect or the level left; settings: nci-h460, 48 h, 10 µM
# KM12 = assay: Growth inhibition of human KM12 cells assessed as cell growth at 10^-5 M incubated for 48 hrs by sulforhodamine B assay relative to control; format: cell-based; parameters: scale not given: the % may be the effect or the level left; settings: km12, 48 h, 10 µM
# Aspergillus fumigatus [1] = assay: Antifungal activity against Aspergillus fumigatus RCMB 02568 assessed as diameter of zone inhibition after 48 hrs by agar well diffusion assay; format: functional
# DU-145 = assay: Growth inhibition of human DU145 cells assessed as cell growth at 10^-5 M incubated for 48 hrs by sulforhodamine B assay relative to control; format: cell-based; parameters: scale not given: the % may be the effect or the level left; settings: du-145, 48 h, 10 µM
# WI-38 = assay: Cytotoxicity against human WI38 cells by MTT assay; format: cell-based
# [2] = Cytotoxicity against mouse RAW264.7 cells; format: cell-based
# [3] = tested on: Mycobacterium tuberculosis; assay: Antitubercular activity against Mycobacterium tuberculosis RCMB 010126 clinical isolate after 4 days by microplate alamar blue assay; format: functional; settings: for MIC: Mycobacterium tuberculosis, RCMB 010126, 96 h
# [4] = Selectivity index, ratio of GI50 for mouse RAW264.7 cells to MIC for Mycobacterium aurum infected in mouse RAW264.7 cells; format: toxicity, cell-based; settings: read-out: Selectivity Index
# Aspergillus fumigatus [5] = assay: Antifungal activity against Aspergillus fumigatus RCMB 02568 after 24 hrs by serial dilution method; format: functional; settings: RCMB 02568, 24 h
# SK-MEL-28 = assay: Growth inhibition of human SK-MEL-28 cells assessed as cell growth at 10^-5 M incubated for 48 hrs by sulforhodamine B assay relative to control; format: cell-based; parameters: scale not given: the % may be the effect or the level left; settings: sk-mel-28, 48 h, 10 µM
# NCI-H522 = assay: Growth inhibition of human NCI-H522 cells assessed as cell growth at 10^-5 M incubated for 48 hrs by sulforhodamine B assay relative to control; format: cell-based; parameters: scale not given: the % may be the effect or the level left; settings: nci-h522, 48 h, 10 µM
# Hs-578T = assay: Growth inhibition of human Hs 578T cells assessed as cell growth at 10^-5 M incubated for 48 hrs by sulforhodamine B assay relative to control; format: cell-based; parameters: scale not given: the % may be the effect or the level left; settings: 10 µM
# HOP-92 = assay: Growth inhibition of human HOP92 cells assessed as cell growth at 10^-5 M incubated for 48 hrs by sulforhodamine B assay relative to control; format: cell-based; parameters: scale not given: the % may be the effect or the level left; settings: hop-92, 48 h, 10 µM
# SK-MEL-5 = assay: Growth inhibition of human SK-MEL-5 cells assessed as cell growth at 10^-5 M incubated for 48 hrs by sulforhodamine B assay relative to control; format: cell-based; parameters: scale not given: the % may be the effect or the level left; settings: sk-mel-5, 48 h, 10 µM
# M14 = assay: Growth inhibition of human M14 cells assessed as cell growth at 10^-5 M incubated for 48 hrs by sulforhodamine B assay relative to control; format: cell-based; parameters: scale not given: the % may be the effect or the level left; settings: m14, 48 h, 10 µM
# Candida albicans = assay: Antifungal activity against Candida albicans RCMB 05036 after 24 hrs by serial dilution method; format: functional; settings: RCMB 05036, 24 h
# IGROV-1 = assay: Growth inhibition of human IGROV1 cells assessed as cell growth at 10^-5 M incubated for 48 hrs by sulforhodamine B assay relative to control; format: cell-based; parameters: scale not given: the % may be the effect or the level left; settings: igrov-1, 48 h, 10 µM
# CCRF-CEM = assay: Growth inhibition of human CCRF-CEM cells assessed as cell growth at 10^-5 M incubated for 48 hrs by sulforhodamine B assay relative to control; format: cell-based; parameters: scale not given: the % may be the effect or the level left; settings: 10 µM
# TK-10 = assay: Growth inhibition of human TK10 cells assessed as cell growth at 10^-5 M incubated for 48 hrs by sulforhodamine B assay relative to control; format: cell-based; parameters: scale not given: the % may be the effect or the level left; settings: tk-10, 48 h, 10 µM
# UO-31 = assay: Growth inhibition of human UO31 cells assessed as cell growth at 10^-5 M incubated for 48 hrs by sulforhodamine B assay relative to control; format: cell-based; parameters: scale not given: the % may be the effect or the level left; settings: uo-31, 48 h, 10 µM
# SNB-75 = assay: Growth inhibition of human SNB75 cells assessed as cell growth at 10^-5 M incubated for 48 hrs by sulforhodamine B assay relative to control; format: cell-based; parameters: scale not given: the % may be the effect or the level left; settings: snb-75, 48 h, 10 µM
# RXF 393 = assay: Growth inhibition of human RXF393 cells assessed as cell growth at 10^-5 M incubated for 48 hrs by sulforhodamine B assay relative to control; format: cell-based; parameters: scale not given: the % may be the effect or the level left; settings: rxf 393, 48 h, 10 µM
# A549 = assay: Growth inhibition of human A549 cells assessed as cell growth at 10^-5 M incubated for 48 hrs by sulforhodamine B assay relative to control; format: cell-based; parameters: scale not given: the % may be the effect or the level left; settings: a549, 48 h, 10 µM
# Pseudomonas aeruginosa = assay: Antibacterial activity against Pseudomonas aeruginosa RCMB 010043 assessed as diameter of zone inhibition after 24 hrs by agar well diffusion assay; format: functional
# EKVX = assay: Growth inhibition of human EKVX cells assessed as cell growth at 10^-5 M incubated for 48 hrs by sulforhodamine B assay relative to control; format: cell-based; parameters: scale not given: the % may be the effect or the level left; settings: 10 µM
# SF-539 = assay: Growth inhibition of human SF539 cells assessed as cell growth at 10^-5 M incubated for 48 hrs by sulforhodamine B assay relative to control; format: cell-based; parameters: scale not given: the % may be the effect or the level left; settings: sf-539, 48 h, 10 µM
# 786-0 = assay: Growth inhibition of human 786-0 cells assessed as cell growth at 10^-5 M incubated for 48 hrs by sulforhodamine B assay relative to control; format: cell-based; parameters: scale not given: the % may be the effect or the level left; settings: 786-0, 48 h, 10 µM
# COLO 205 = assay: Growth inhibition of human COLO205 cells assessed as cell growth at 10^-5 M incubated for 48 hrs by sulforhodamine B assay relative to control; format: cell-based; parameters: scale not given: the % may be the effect or the level left; settings: colo 205, 48 h, 10 µM
# [6] = tested on: Mycobacterium tuberculosis; assay: Potency index, ratio of isoniazid MIC to compound MIC for antitubercular activity against Mycobacterium tuberculosis RCMB 010126 clinical isolate; format: functional
# SW-620 = assay: Growth inhibition of human SW620 cells assessed as cell growth at 10^-5 M incubated for 48 hrs by sulforhodamine B assay relative to control; format: cell-based; parameters: scale not given: the % may be the effect or the level left; settings: sw-620, 48 h, 10 µM
# NCI-H226 = assay: Growth inhibition of human NCI-H226 cells assessed as cell growth at 10^-5 M incubated for 48 hrs by sulforhodamine B assay relative to control; format: cell-based; parameters: scale not given: the % may be the effect or the level left; settings: nci-h226, 48 h, 10 µM
SMILES,Activity (U-251),Activity (SF-268),Activity (SK-OV-3),Activity (OVCAR-5),MIC (Staphylococcus aureus),Activity (NCI-H460),Activity (KM12),diameter of the inhibition zone (DIZ) (Aspergillus fumigatus [1]),Activity (DU-145),IC50 (WI-38),GI50 [2],inhibition (INH) [3],MIC [3],selectivity ratio [4],MIC (Aspergillus fumigatus [5]),Activity (SK-MEL-28),Activity (NCI-H522),Activity (Hs-578T),Activity (HOP-92),Activity (SK-MEL-5),also measured
CCOC(=O)c1sc(/N=C2\NC(=O)/C(=C3/C(=O)N(Cc4ccccc4)c4ccc(Cl)cc43)S2)nc1C,99.74%,93.91%,103.42%,112.65%,0.98 µg/mL,101.98%,101.95%,21.3 mm,104.75%,52.1 µg/mL,62.5 µg/mL,75.32%,0.39 µg/mL,1.25,1.95 µg/mL,113.38%,90.82%,94.4%,92.11%,101.5%,Activity (M14): 98.8%; MIC (Candida albicans): 1.95 µg/mL; Activity (IGROV-1): 105.63%; Activity (CCRF-CEM): 98.38%; Activity (TK-10): 97.92%; Activity (UO-31): 91.72%; Activity (SNB-75): 90.57%; Activity (RXF 393): 105.33%; Activity (A549): 97.17%; diameter of the inhibition zone (DIZ) (Pseudomonas aeruginosa): 22.3 mm; Activity (EKVX): 100.9%; Activity (SF-539): 99.4%; Activity (786-0): 103.02%; Activity (COLO 205): 101.47%; Ratio [6]: 2; Activity (SW-620): 98.41%; Activity (NCI-H226): 94.7%
CC(=O)c1sc(/N=C2\NC(=O)/C(=C3/C(=O)N(C)c4ccc(Cl)cc43)S2)nc1C,113.76%,98.04%,117.19%,104.59%,0.98 µg/mL,113.18%,94.43%,22.2 mm,100.78%,19.5 µg/mL,125 µg/mL,76.35%,0.39 µg/mL,5,0.98 µg/mL,99.13%,88.75%,115.73%,95.24%,97.1%,Activity (M14): 100.08%; MIC (Candida albicans): 0.49 µg/mL; Activity (IGROV-1): 94.36%; Activity (CCRF-CEM): 111%; Activity (TK-10): 118.37%; Activity (UO-31): 90.16%; Activity (SNB-75): 104.77%; Activity (RXF 393): 106.08%; Activity (A549): 105.29%; diameter of the inhibition zone (DIZ) (Pseudomonas aeruginosa): 22.2 mm; Activity (EKVX): 95.78%; Activity (SF-539): 94.05%; Activity (786-0): 106.86%; Activity (COLO 205): 108.28%; Ratio [6]: 2; Activity (SW-620): 119.01%; Activity (NCI-H226): 94.2%
